Assay results as given in article PMC3509222 (Molecular Microbiology, 2012).

Biological target: T1, full-length SgmT (His6-SgmT) (Myxococcus xanthus, UniProt Q1D3G7)
T1 sequence (Q1D3G7 1-836): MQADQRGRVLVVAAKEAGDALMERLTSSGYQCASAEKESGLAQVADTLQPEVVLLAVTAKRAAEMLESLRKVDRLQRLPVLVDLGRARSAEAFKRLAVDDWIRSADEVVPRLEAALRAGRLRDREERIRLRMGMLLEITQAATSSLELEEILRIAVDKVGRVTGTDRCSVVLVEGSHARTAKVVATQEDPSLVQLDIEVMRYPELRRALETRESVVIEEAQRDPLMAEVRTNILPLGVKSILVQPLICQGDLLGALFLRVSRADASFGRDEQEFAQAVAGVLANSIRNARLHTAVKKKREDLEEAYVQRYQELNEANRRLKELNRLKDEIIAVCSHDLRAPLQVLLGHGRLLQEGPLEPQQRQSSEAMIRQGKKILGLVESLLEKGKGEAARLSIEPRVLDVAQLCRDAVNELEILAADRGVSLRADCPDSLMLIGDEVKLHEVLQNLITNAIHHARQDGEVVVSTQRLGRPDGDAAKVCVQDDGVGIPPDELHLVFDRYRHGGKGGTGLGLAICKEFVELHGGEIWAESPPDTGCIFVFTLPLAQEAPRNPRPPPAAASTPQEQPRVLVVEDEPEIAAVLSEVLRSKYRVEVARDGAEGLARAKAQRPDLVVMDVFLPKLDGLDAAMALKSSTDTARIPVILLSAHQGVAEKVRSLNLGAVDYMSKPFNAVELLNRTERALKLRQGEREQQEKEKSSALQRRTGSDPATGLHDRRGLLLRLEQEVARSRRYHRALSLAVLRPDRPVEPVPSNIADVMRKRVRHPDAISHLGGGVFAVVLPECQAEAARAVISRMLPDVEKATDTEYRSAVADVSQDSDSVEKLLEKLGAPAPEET
Settings: labelled compound; 1.0 mM ATP, 10 mM MgCl2, Tris pH 8.0, 30°C, 30 min

Q: How did the “autophosphorylation, SDS-PAGE and phosphorimaging” value turn out when `Nc1ncnc2c1ncn2[C@@H]1O[C@H](COP(=O)(O)OP(=O)(O)OP(=O)(O)O)[C@@H](O)[C@H]1O` [[γ-^32P]-ATP] was run?
A: The value was “Autophosphorylation of full-length SgmT and phosphotransfer to DigR”.
